Assay [1] concerns CU-ACC1. Briefly: area under concentration-response curve (viability) (AUC (a.u.)); higher = less active. The conditions noted are these: 48 h. The method, boiled down: (§1)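 Luminescence from CellTiter-Glo, read after 48 h, measured three adrenocortical carcinoma cell lines treated in 1,536-well plates with library compounds at 11 concentrations. Values were normalised per plate to vehicle and empty-well controls. The AC50 and area under the curve come from fitted concentration-response curves in inhibitory or non-responding classes only.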

Assay [2] has as its system NCI-H295R. Described as above. The following applies: 48 h. The method, boiled down:
as §1

Structures are written as SMILES.

In the case of `CC1(C)[C@@H](O)CC[C@@]2(C)[C@H]1CC[C@]3(C)[C@@H]2C(=O)\C=C/4[C@@H]5C[C@](C)(CC[C@]5(C)CC[C@@]34C)C(O)=O`, the entries for the “area under concentration-response curve” value in assay [1] and in assay [2] were 512 and 545, respectively.
For `CO[C@@H](C(=O)N1Cc2[nH]nc(NC(=O)c3ccc(N4CCN(C)CC4)cc3)c2C1)c1ccccc1`, in that order: 539 and 549.
The like results for `CN(C)C1=C(Br)C=C(C=C1)C\2NC3=C(\C4=C2C(=O)CC(C)(C)C4)C5=CC=CC=C5C=C3` (stereo unspecified) were, in that order, 506 and 515.
The like results for `CCCCCC[C@H]1C(=O)O[C@H](C)[C@H](NC(=O)c2cccc(NC=O)c2O)C(=O)O[C@@H](C)[C@@H]1OC(=O)CC(C)C` were, in that order, 491 and 467.
Consider `CCCN1CCN(c2ccc(C(=O)NC3(C(=O)NCC#N)CCCCC3)cc2)CC1`, for which the “area under concentration-response curve” value in assay [1] was 375; in assay [2], 299.
For `NC(=O)c1cnc2[nH]ccc2c1NC1C2CC3C[C@H]1CC(O)(C3)C2` (stereo partly specified), the figures for the “area under concentration-response curve” value in assay [1] and in assay [2] were 519 and 547, respectively.
`Cc1c(F)ccc(C(=O)Nc2cc([N+](=O)[O-])ccc2N2CCN(C)CC2)c1Cl`: the entries for the “area under concentration-response curve” value in assay [1] and in assay [2] were 457 and 434, respectively.
Regarding `COCCOC(=O)C/1=C(C)/NC/2=C(C1C3=CC=CC(=C3)O)/C(=O)CC(C2)C4=C(OC)C=CC=C4` (stereo unspecified), the “area under concentration-response curve” value in assay [1] was found to be 446; in assay [2], 507.
Take `COc1ccc2nc3[nH]nc(C)c3c(NCCOCCO)c2c1`: the “area under concentration-response curve” value in assay [1] turned out to be 545; in assay [2], 574.
Turning to `CN1C(=O)[C@@H](NC(=O)c2nc(Cc3ccccc3)n[nH]2)COc2ccccc21`, the entries for the “area under concentration-response curve” value in assay [1] and in assay [2] were 536 and 559, respectively.
With `CCCCC[C@H](O)/C=C/[C@H]1[C@H](O)CC(=O)[C@@H]1C/C=C\CCCC(=O)O`, the “area under concentration-response curve” value turned out to be 485 in assay [1] and 529 in assay [2].
For `CN1CCN(CC1)C2=NC3=C(C=CC=C3)C(=N2)C/4=C(/C(=O)NC4=O)C5=C[NH]C6=C5C=CC=C6`, in that order: 498 and 523.
`COC1=CC=C2C(=CC=NC2=C1)OC3=CC=C(NC(=O)\C4=C(C)\N(CC(C)(C)O)N(C4=O)C5=CC=CC=C5)C=C3F`: the “area under concentration-response curve” value stood at 398 in assay [1] and 459 in assay [2].
Consider `OCCN1CCN(CCCN2c3ccccc3Sc3ccc(C(F)(F)F)cc32)CC1`, for which the “area under concentration-response curve” value in assay [1] was 432; in assay [2] it was 279.
`O=C(Nc1ccc(F)c(C(F)(F)F)c1)Nc1nnc(-c2ccncc2)s1`: the “area under concentration-response curve” value in assay [1] turned out to be 444; in assay [2], 464.
Regarding `CC(=O)CC(C1=CC=CC=C1)C/2=C(O)/C3=CC=CC=C3OC2=O` (stereo unspecified), the figures for the “area under concentration-response curve” value in assay [1] and in assay [2] were 491 and 533, respectively.
Take `O=C(O)CC/C=C\CC[C@@H]1[C@@H](N2CCCCC2)[C@@H](O)C[C@@H]1OCc1ccc(-c2ccccc2)cc1`: the “area under concentration-response curve” value in assay [1] is 389; in assay [2], 424.
For `C/N=c1\ncc2cc(-c3cc(N/C(O)=N/CCC(C)(C)C)c(F)cc3C)c(C)nc2[nH]1`, in that order: 454 and 474.
`O=C(NNc1ccccc1)c1ccncc1`: the “area under concentration-response curve” value in assay [1] is 483; in assay [2], 527.
The like results for `Cn1cc(-c2cnn3c(N)c(Br)c(C4CCCNC4)nc23)cn1` (stereo unspecified) were, in that order, 516 and 557.
The like results for `c1ccc2c(Oc3nc(Nc4ccc(N5CCOCC5)cc4)c4ncn(C5CCCCC5)c4n3)cccc2c1` were, in that order, 481 and 535.
With `Cc1ccc(Nc2cc(N[C@@H]3CCCC[C@@H]3N)nnc2C(N)=O)nc1C`, the “area under concentration-response curve” value was found to be 516 in assay [1] and 568 in assay [2].
As for `C1C\N=C(\NC(C2CC2)C3CC3)O1`, the “area under concentration-response curve” value in assay [1] was 542; in assay [2], 591.
Turning to `C[C@H](NC(=O)Cc1cc(F)cc(F)c1)C(=O)N[C@@H]1C(=O)N(C)c2ccccc2-c2ccccc21`, the figures for the “area under concentration-response curve” value in assay [1] and in assay [2] were 516 and 528, respectively.
In the case of `OC(=O)/C1=C/CCN(CCOC(C2=CC=C(C=C2)C(F)(F)F)C3=CC=C(C=C3)C(F)(F)F)C1`, the “area under concentration-response curve” value was 548 in assay [1] and 569 in assay [2].
As to `CC(C)(O)[C@H]1CC[C@@](C)([C@H]2[C@@H](O)C[C@@]3(C)[C@@H]4C[C@H](O[C@@H]5O[C@H](CO)[C@@H](O)[C@H](O)[C@H]5O)[C@H]5C(C)(C)[C@@H](O[C@@H]6OC[C@@H](O)[C@H](O)[C@H]6O)CC[C@@]56C[C@@]46CC[C@]23C)O1`, the results for the “area under concentration-response curve” value in assay [1] and in assay [2] were 535 and 547, respectively.
On to `Cc1c(CCOc2ccc(C(=O)O)cc2)c2cc(Cl)ccc2n1C(c1ccccc1)c1ccccc1`, for which the “area under concentration-response curve” value was found to be 536 in assay [1] and 600 in assay [2].
Take `COc1cc(C(=O)O)ccc1NC(=O)[C@@H]1N[C@@H](CC(C)(C)C)[C@](C#N)(c2ccc(Cl)cc2F)[C@H]1c1cccc(Cl)c1F`: the “area under concentration-response curve” value in assay [1] is 469; in assay [2] it was 540.
Regarding `Cn1cnc([N+](=O)[O-])c1Sc1ncnc2nc[nH]c12`, the figures for the “area under concentration-response curve” value in assay [1] and in assay [2] were 427 and 472, respectively.
Consider `CN1CCCN(CC1)C2=CC=C3C(=O)\C(=C/4SC5=C(C=CC=C5)N4C3=N2)C(=O)NCC6=CN=C(C)C=N6`, for which the figures for the “area under concentration-response curve” value in assay [1] and in assay [2] were 528 and 554, respectively.
With `CNC(=O)c1cc(Oc2ccc(NC(=O)Nc3cc(C(C)(C)C)nn3-c3ccc4ncccc4c3)c(F)c2)ccn1`, the “area under concentration-response curve” value in assay [1] was 496; in assay [2], 561.
As to `CONC(=O)Nc1ccc(-c2sc3c(c2CN(C)C)c(=O)n(-c2ccc(OC)nn2)c(=O)n3Cc2c(F)cccc2F)cc1`, the “area under concentration-response curve” value in assay [1] was determined as 354; in assay [2] it was 458.
`COC1=C(OC)C(=O)C(C/C=C(\C)CC/C=C(\C)CC/C=C(\C)CC/C=C(/C)CC/C=C(\C)CC/C=C(\C)CC/C=C(\C)CC/C=C(\C)CC/C=C(\C)CCC=C(C)C)=C(C)C1=O`: the figures for the “area under concentration-response curve” value in assay [1] and in assay [2] were 502 and 559, respectively.
Regarding `CONC(=O)Nc1ccc(-c2sc3c(c2CN(C)Cc2ccccc2)c(=O)n(-c2ccccc2)c(=O)n3Cc2c(F)cccc2F)cc1`, the “area under concentration-response curve” value is 531 in assay [1] and 556 in assay [2].
On to `O=C(Nc1cnccc1Cl)N1CCN(Cc2ccc3c(c2)OC(F)(F)O3)CC1`, for which the “area under concentration-response curve” value was found to be 330 in assay [1] and 414 in assay [2].
For `NC(=O)c1cc(F)cc2c1C(=O)N(C1CCN(C3CCC(F)(F)CC3)CC1)C2`, in that order: 541 and 568.
`O=C(O)CCc1ccc(NCc2cccc(Oc3ccccc3)c2)cc1`: the “area under concentration-response curve” value was 546 in assay [1] and 599 in assay [2].
Consider `O=[S+]([O-])(F)Cc1ccccc1`, for which the “area under concentration-response curve” value stood at 510 in assay [1] and 517 in assay [2].
For `CN(C[C@@H]1COCCO1)[S+]([O-])(=O)NC2=CC3=C(C=C2)\C=C/C4=C(C=C(C=N4)C5=C[N](C)N=C5)C3=O`, the “area under concentration-response curve” value came out at 547 in assay [1] and 578 in assay [2].
As for `c1cc(OCCN2CCCCC2)cc(-c2n[nH]c3ccc(-c4nc[nH]n4)cc23)c1`, the “area under concentration-response curve” value turned out to be 525 in assay [1] and 563 in assay [2].
`Cc1ncc(OC[C@@]2(c3cccc(F)c3)C[C@H]2C(=O)Nc2ccc(F)cn2)c(C)n1`: the “area under concentration-response curve” value in assay [1] was 457; in assay [2], 516.
For `CN(C)CCN1C(=O)c2cccc3cc(NC(N)=O)cc(c23)C1=O`, in that order: 521 and 542.
Take `CC(C)CC(N(C)C)C1(c2ccc(Cl)cc2)CCC1` (stereo unspecified): the “area under concentration-response curve” value came to 291 in assay [1] and 349 in assay [2].
For the molecule `COc1cc2c(cc1OC)C1CC(=O)C(CC(C)C)CN1CC2` (stereo unspecified), the figures for the “area under concentration-response curve” value in assay [1] and in assay [2] were 506 and 567, respectively.
The like results for `CCN1\C=C(C(O)=O)/C(=O)C2=C1C=C(N3CCN(C)CC3)C(=C2)F` were, in that order, 511 and 555.
`c1ccc(-c2oc3ncnc(NC[C@@H]4CCCO4)c3c2-c2ccccc2)cc1`: the “area under concentration-response curve” value came out at 517 in assay [1] and 572 in assay [2].
Turning to `CCOC(=O)C1=CCCCC1[S+](=O)([O-])Nc1ccc(F)cc1Cl` (stereo unspecified), the “area under concentration-response curve” value in assay [1] worked out at 517; in assay [2], 573.
For the molecule `Cn1cc(-c2ccc3c(c2)CCN3C(=O)Cc2cccc(C(F)(F)F)c2)c2c(N)ncnc21`, the results for the “area under concentration-response curve” value in assay [1] and in assay [2] were 523 and 577, respectively.

The values are drawn from the supplement of paper PMC10949913.
